In patent EP4800016A1, “METTL3 INHIBITOR” (Hangzhou Bangshun Pharmaceutical Co., Ltd., priority 2023, dated 2025):
pIC50: −log10 of the molar value.

Columns and labels:
METTL3/14 = molecular target: T1, METTL3/14 (Homo sapiens, UniProt Q86U44); assay: METTL3/14 methyltransferase activity assay (HTRF); format: biochemical; details: 10 concentrations, 3-fold dilution from 10 µM
T1 construct: purchased active motif 31570
Procedure: The final initial concentration of the compound was 10 µM, with 3-fold serial dilution to give a total of 10 concentrations. 100 nL of the compound was transferred to a 384-well plate and centrifuged at 1000 RPM. 2.5 µL of METTL3/14 (active motif, Cat No. 31570) was added to the test wells and incubated at 25°C for 10 min. 2.5 µL of METTL3-Biotin & SAM (GenScript) was added to the test wells andincubated at 25°C for 60 min. 2.5 µL of YTHDF1 (active motif, Cat No. 31608) was added to the test wells and centrifuged at 1000 RPM. 2.5 µL of Streptavidin-Tb (Perkin Elmer Cat No. 61SATLB) & Flag-mede (Perkin Elmer Cat No. 61FG2DLA) was added to the test wells and centrifuged at 1000 RPM. Incubated at 25°C for 60 min. HTRF was measured using a Plate reader. The results of each compound are shown in Table 1, where A+indicates <10nM, A indicates 10-100nM, B indicates 100-1000nM, and C indicates >1000nM.

Kasumi-1 cells = assay: Kasumi-1 cell inhibitory activity (CellTiter-Glo, 5 days); format: cell-based; details: Homo sapiens, 120 h, 5 days incubation, CellTiter-Glo luminescence
Procedure: Test compounds were dissolved in DMSO to prep are a 250×final concentration solution. The initial concentration was 10 µM with 3-fold dilution, resulting in a total of ten concentration points. 4 µL of the compound solution was added to 96 µL of cell culture medium to dilute it to 10×the final concentration. On the first day, Kasumi-1 cells (purchased from Precedo) were suspended in cell culture medium at the desired density, 90 µL of the cell suspension was added to a 96-well plate, and 10 µL of 10×compound solution was added for incubation, with a final DMSO concentration of 0.4% in each well. Incubated at 37 °C, 5% CO2 for 5 days. Before measurement after 5 days, the test plate was placed at room temperature, 50 µL of CellTiter-Glo® reagent (purchased from Promega, Cat. No. G7573) was added, mixed on a shaker for 2 minutes to lyse the cells, and incubated at room temperature for 10 minutes to stabilize the […] signal. Luminescence values were recorded using Paradigm, and the response-concentration curve was fitted with Graphpad Pr ism 8.0 to calculate IC50values. The results of each compound are shown in Table2, where A indicates <100nM, B indicates 100-1000nM, and C indicates >1000nM. [formula]

T1 sequence (Q86U44 whole entry): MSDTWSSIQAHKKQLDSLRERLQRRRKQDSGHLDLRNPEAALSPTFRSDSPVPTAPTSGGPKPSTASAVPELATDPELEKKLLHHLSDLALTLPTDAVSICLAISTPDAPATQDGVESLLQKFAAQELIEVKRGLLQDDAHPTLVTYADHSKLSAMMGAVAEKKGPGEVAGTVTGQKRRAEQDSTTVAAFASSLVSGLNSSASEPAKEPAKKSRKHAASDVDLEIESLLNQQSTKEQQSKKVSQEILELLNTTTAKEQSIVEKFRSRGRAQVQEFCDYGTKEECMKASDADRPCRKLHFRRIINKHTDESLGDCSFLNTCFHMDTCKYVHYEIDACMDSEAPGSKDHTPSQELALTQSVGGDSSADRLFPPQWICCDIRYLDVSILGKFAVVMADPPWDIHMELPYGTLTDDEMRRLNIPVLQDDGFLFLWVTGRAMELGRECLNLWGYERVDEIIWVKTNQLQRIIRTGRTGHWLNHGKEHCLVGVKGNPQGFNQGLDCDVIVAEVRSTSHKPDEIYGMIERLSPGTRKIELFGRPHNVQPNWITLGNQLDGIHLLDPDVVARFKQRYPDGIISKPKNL
T1 sequence (Q9HCE5 whole entry partner): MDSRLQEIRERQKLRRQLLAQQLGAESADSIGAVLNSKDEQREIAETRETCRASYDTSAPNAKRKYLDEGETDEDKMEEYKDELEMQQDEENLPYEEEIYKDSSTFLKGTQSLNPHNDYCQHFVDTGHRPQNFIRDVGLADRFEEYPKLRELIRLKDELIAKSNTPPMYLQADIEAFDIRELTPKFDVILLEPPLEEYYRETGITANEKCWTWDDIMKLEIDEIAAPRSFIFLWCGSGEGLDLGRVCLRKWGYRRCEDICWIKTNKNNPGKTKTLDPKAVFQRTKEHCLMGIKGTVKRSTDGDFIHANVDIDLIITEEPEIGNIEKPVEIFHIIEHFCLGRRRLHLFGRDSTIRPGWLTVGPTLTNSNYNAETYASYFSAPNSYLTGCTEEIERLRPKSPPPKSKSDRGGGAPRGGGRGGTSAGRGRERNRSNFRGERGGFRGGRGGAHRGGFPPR

SMILES | pIC50 (METTL3/14) | pIC50 (Kasumi-1 cells)
[2H]C([2H])(NCc1cc2cc(F)c(CNC(=O)c3cc(=O)n4cc5c(cc4n3)OCCO5)cc2[nH]1)C1CCC1 [Example 90, N-((2-(((Cyclobutylmethyl-d2)amino)methyl)-5-fluoro-1H-indol-6-yl)methyl)-9-oxo-2,3-dihydro-9H-[1,4]dioxino[2',3':4,5]pyrido[1,2-a]pyrimidine-7-carboxamide] | > 8.00 | > 7.00
O=C(NCc1cc2[nH]c(CNCC34CC(CO3)C4)cc2cc1F)c1cc(=O)n2cc3c(cc2n1)OCO3 [Example 87, N-((2-((((2-Oxabicyclo[2.1.1]hexan-1-yl)methyl)amino)methyl)-5-fluoro-1H-indol-6-yl)methyl)-8-oxo-8H-[1,3]dioxolo[2',3':4,5]pyrido[1,2-a]pyrimidine-6-carboxamide] | 7.00 to 8.00 | 6.00 to 7.00
O=C(NCc1ccc2cc(CNCC34CC(F)(C3)C4)[nH]c2c1)c1cc(=O)n2cc3c(cc2n1)OCCO3 [Example 46, N-((2-((((3-Fluorobicyclo[1.1.1]pentan-1-yl)methyl)amino)methyl)-1H-indol-6-yl)methyl)-9-oxo-2,3-dihydro-9H-[1,4]dioxolo[2',3':4,5]pyrido[1,2-a]pyrimidine-7-carboxamide] | > 8.00 | > 7.00
O=C(NCc1cc2[nH]c(CNCC3CCC3)cc2cc1F)c1cc(=O)n2cc3c(cc2n1)OCCO3 [Example 85, N-((2-(((Cyclobutylmethyl)amino)methyl)-5-fluoro-1H-indol-6-yl)methyl)-9-oxo-2,3-dihydro-9H-[1,4]dioxino[2',3':4,5]pyrido[1,2-a]pyrimidine-7-carboxamide] | 7.00 to 8.00 | > 7.00
O=C(NCc1cc2[nH]c(CNCC34CC(CO3)C4)cc2cc1F)c1cc(=O)n2cc3c(cc2n1)OCCO3 [Example 86, N-((2-((((2-Oxabicyclo[2.1.1]hexan-1-yl)methyl)amino)methyl)-5-fluoro-1H-indol-6-yl)methyl)-9-oxo-2,3-dihydro-9H-[1,4]dioxino[2',3':4,5]pyrido[1,2-a]pyrimidine-7-carboxamide] | 7.00 to 8.00 | 6.00 to 7.00
CC1(CNCc2cc3ccc(CNC(=O)c4cc(=O)n5cc6c(cc5n4)OCO6)cc3[nH]2)CCC1 [Example 51, N-((2-((((1-Methylcyclobutyl)methyl)amino)methyl)-1H-indol-6-yl)methyl)-8-oxo-8H-[1,3]dioxolo[4',5':4,5]pyrido[1,2-a]pyrimidine-6-carboxamide] | > 8.00 | 6.00 to 7.00
[2H]C([2H])(NCc1cc2ccc(CNC(=O)c3cc(=O)n4cc5c(cc4n3)OCCO5)cc2[nH]1)C12CC(F)(C1)C2 [Example 95, N-((2-((((3-fluorobicyclo[1.1.1]pentan-1-yl)methyl-d2)amino)methyl)-1H-indol-6-yl)methyl)-9-oxo-2,3-dihydro-9H-[1,4]dioxino[2',3':4,5]pyrido[1,2-a]pyrimidine-7-carboxamide] | > 8.00 | > 7.00
O=C(NCc1ccc2cc(CNCC3CC(F)(F)C3)[nH]c2c1)c1cc(=O)n2cc3c(cc2n1)OCO3 [Example 26, N-((2-((((3,3-Difluorocyclobutyl)methyl)amino)methyl)-1H-indol-6-yl)methyl)-8-oxo-8H-[1,3]dioxolo[4',5':4,5]pyrido[1,2-a]pyrimidine-6-carboxamide] | 7.00 to 8.00 | 6.00 to 7.00
O=C(NCc1ccc2cc(CNCC3CCC3)[nH]c2c1)c1cn2ncc3c2c(n1)NCCC3 [Example 45, N-((2-(((Cyclobutylmethyl)amino)methyl)-1H-indol-6-yl)methyl)-6,7,8,9-tetrahydro-2,2a,5,6-tetraazabenzo[cd]azulene-4-carboxamide] | 7.00 to 8.00 | 6.00 to 7.00
O=C(NCc1ccc2cc(CNCC34CC(CO3)C4)[nH]c2c1)c1cc(=O)n2cc3c(cc2n1)OCCO3 [Example 77, N-((2-((((2-oxabicyclo[2.1.1]hexan-1-yl)methyl)amino)methyl)-1H-indol-6-yl)methyl)-9-oxo-2,3-dihydro-9H-[1,4]dioxino[2',3':4,5]pyrido[1,2-a]pyrimidin-7-carboxamide] | > 8.00 | 6.00 to 7.00
[2H]C([2H])(NCc1cc2cc(F)c(CNC(=O)c3cc(=O)n4cc5c(cc4n3)OCO5)cc2[nH]1)C12CC(CO1)C2 [Example 93, N-((2-((((2-Oxabicyclo[2.1.1]hexan-1-yl)methyl-d2)amino)methyl)-5-fluoro-1H-indol-6-yl)methyl)-8-oxo-8H-[1,3]dioxolo[4',5':4,5]pyrido[1,2-a]pyrimidine-6-carboxamide] | 7.00 to 8.00 | 6.00 to 7.00
O=C(NCc1ccc2cc(CNCC34CC(CO3)C4)[nH]c2c1)c1cc(=O)n2cc3c(cc2n1)OCO3 [Example 84, N-((2-((((2-Oxabicyclo[2.1.1]hexan-1-yl)methyl)amino)methyl)-1H-indol-6-yl)methyl)-8-oxo-8H-[1,3]dioxolo[2',3':4,5]pyrido[1,2-a]pyrimidine-6-carboxamide] | > 8.00 | 6.00 to 7.00
[2H]C([2H])(NCc1cc2ccc(CNC(=O)c3cc(=O)n4cc5c(cc4n3)OCO5)cc2[nH]1)C12CC(F)(C1)C2 [Example 72, N-((2-((((3-Fluorobicyclo[1.1.1]pentan-1-yl)methyl-d2)amino)methyl)-1H-indol-6-yl)methyl)-8-oxo-8H-[1,3]dioxolo[4',5':4,5]pyrido[1,2-a]pyrimidine-6-carboxamide] | > 8.00 | > 7.00
O=C(NCc1cn2cc(CNCC3CCC3)ccc2n1)c1cc(=O)n2cc3c(cc2n1)OCO3 [Example 41, N-((6-(((cyclobutylmethyl)amino)methyl)imidazo[1,2-a]pyridin-2-yl)methyl)-8-oxo-8H-[1,3]dioxolo[4',5':4,5]pyrido[1,2-a]pyrimidine-6-carboxamide] | > 8.00 | 6.00 to 7.00
COC1(CNCc2cc3ccc(CNC(=O)c4cc(=O)n5cc6c(cc5n4)OCCO6)cc3[nH]2)CCC1 [Example 80, N-((2-((((1-Methoxycyclobutyl)methyl)amino)methyl)-1H-indol-6-yl)methyl)-9-oxo-2,3-dihydro-9H-[1,4]dioxino[2',3':4,5]pyrido[1,2-a]pyrimidine-7-carboxamide] | 7.00 to 8.00 | 
COC1(CNCc2cc3ccc(CNC(=O)c4cc(=O)n5cc6c(cc5n4)OCO6)cc3[nH]2)CCC1 [Example 83, N-((2-((((1-Methoxycyclobutyl)methyl)amino)methyl)-1H-indol-6-yl)methyl)-8-oxo-8H-[1,3]dioxolo[2',3':4,5]pyrido[1,2-a]pyrimidine-6-carboxamide] | > 8.00 | 
CN1CCOc2cnn3cc(C(=O)NCc4ccc5cc(CNCC6CCC6)[nH]c5c4)nc1c23 [Example 59, N-((2-(((Cyclobutylmethyl)amino)methyl)-1H-indol-6-yl)methyl)-6-methyl-7,8-dihydro-6H-9-oxa-2,2a,5,6-tetraazabenzo[cd]azulene-4-carboxamide] | 6.00 to 7.00 | 
O=C(NCc1ccc2cc(CNCC3CCC3)[nH]c2c1)c1cc2ncccn2n1 [Example 2, N-((2-(((Cyclobutylmethyl)amino)methyl)-1H-indol-6-yl)methyl)pyrazolo[1,5-a]pyrimidine-2-carboxamide] | 7.00 to 8.00 | 
O=C(NCc1ccc2cc(CNCC34CCCC3C4)[nH]c2c1)c1cc(=O)n2cc3c(cc2n1)OCCO3 (stereo not drawn) [Example 63, N-((2-(((Bicyclo[3.1.0]hexan-1-ylmethyl)amino)methyl)-1H-indol-6-yl)methyl)-9-oxo-2,3-dihydro-9H-[1,4]dioxino[2',3':4,5]pyrido[1,2-a]pyrimidine-7-carboxamide] | > 8.00 | 
O=C(NCc1ccc2cc(CNC[C@@H]3CCO3)[nH]c2c1)c1cc(=O)n2cc3c(cc2n1)OCCO3 [Example 79, (S)-N-((2-(((oxetan-2-ylmethyl)amino)methyl)-1H-indol-6-yl)methyl)-9-oxo-2,3-dihydro-9H-[1,4]dioxolo[2',3':4,5]pyrido[1,2-a]pyrimidine-7-carboxamide] | 7.00 to 8.00 | 
O=C(NC1(c2ccc3cc(CNCC4CCC4)[nH]c3c2)CC1)c1cc(=O)n2cc3c(cc2n1)OCCO3 [Example 43, N-(1-(2-(((Cyclobutylmethyl)amino)methyl)-1H-indol-6-yl)cyclopropyl)-9-oxo-2,3-dihydro-9H-[1,4]dioxino[2',3':4,5]pyrido[1,2-a]pyrimidine-7-carboxamide] | 7.00 to 8.00 | 
O=C(NCc1cc2ccc(CNCC3CCC3)cc2[nH]1)c1cc(=O)n2ccccc2n1 [Example 21, N-((6-(((Cyclobutylmethyl)amino)methyl)-1H-indol-2-yl)methyl)-4-oxo-4H-pyrido[1,2-a]pyrimidine-2-carboxamide] | 6.00 to 7.00 | 
